In US8859727B2, “Bioactive FUS1 peptides and nanoparticle-polypeptide complexes” (Board of Regents, The University of Texas System, priority 2005, dated 2014):
“Also recorded” adds a separate entry of the source. Where a name gives a salt, the structure may show the parent alone. Read-outs that look alike come from different tables or passages of the source. Where a SMILES comes first, the peptide text is derived from it. Where no end group is shown, it is not given here. The star is where a group is joined. Stearoyl = CCCCCCCCCCCCCCCCCC(=O)*

Tests used:
H1299 cells = assay: Soft agar colony assay; format: cell-based, human
c-Abl tyrosine kinase = target: T1, c-Abl tyrosine kinase (Abelson murine leukemia virus, UniProt P00521); format: biochemical; settings: for inhibition of Abl tyrosine kinase: commercial / bacterially purified Abl kinase, GST-Crk substrate
T1 construct: truncated commercial (New England Bio-Labs) cAbl tyrosine kinase (45 kD) containing only the SH2 and SH1 domains; purchased New England Bio-Labs; host or cells: bacteria
Protocol: A zero peptide control, a DMSO control, a DMSO plus stearic acid control, and 20, 25, 30, 35, 40, 45, 50 and 55:M of peptide were evaluated.
After 30 minutes of incubation at 30 degrees, samples were boiled with 2×SDS sample buffer and run on an 8% SDS PAGE gel. The gel was dried and exposed to a phosphoimager.
GST-Crk phosphorylation was quantified by using a phosphoimager.

[1] = tested on: normal bronchial epithelial CCD16 cells; assay: Cell growth / cytotoxicity in normal cells, XTT assay; format: cell-based, human; settings: at the IC80 doses to all other NSCLC cells
[2] = Toxicity Study of FP-nanoparticle in C3H mice (hematological parameters, hepatic and renal function); format: in vivo; settings: tail vein three times every other day
Protocol: C3H mice were injected with a nanoparticle containing a peptide (either the FUS-1 peptide or a nonspecific peptide), and various toxicological parameters were subsequently analyzed at 1, 2 and 3 weeks after injection. Control mice (“Group IX”) were injected with PBS. The toxicological parameters evaluated included hematological parameters (i.e., red blood cell counts “RBC” and white blood cell counts “WBC”), analysis of hepatic function (i.e., AST, ALT, and total bilirubin analysis) and analysis of renal function (i.e., evaluation of creatinine levels). Either DOTAP:cholesterol nanoparticles or DOPC (neutral liposome) nanoparticles were used. The amount of peptide-containing nanoparticle administered to the C3H mice varied from 2 mg/kg to 5 mg/kg. These studies are summarized below in Table V.

[3] = tested on: Rat-1 cells transformed with an activated c-Abl tyrosine kinase; assay: Foci formation in Rat-1 cells transformed by c-Abl; format: cell-based
From the text: Rat-1 SH2 cells express GFP as a marker. A fluorescent photo was taken of green fluorescing Rat-1 SH2 cells treated with peptide. A phase contrast photo of the field was produced. […] (Rat-1 SH2+M74) and (Rat-1 SH2+ stearic acid) were imaged.

[4] = 2 mg/kg, 1st week after last treatment
[5] = 2 mg/kg, 2nd week after last treatment
[6] = 2 mg/kg, 3rd week after last treatment
[7] = 5 mg/kg, 1st week after last treatment
[8] = 5 mg/kg, 2nd week after last treatment
[9] = 5 mg/kg, 3rd week after last treatment
[10] = Rat-1 cells transformed with activated c-Abl

T1 sequence (P00521 1-398): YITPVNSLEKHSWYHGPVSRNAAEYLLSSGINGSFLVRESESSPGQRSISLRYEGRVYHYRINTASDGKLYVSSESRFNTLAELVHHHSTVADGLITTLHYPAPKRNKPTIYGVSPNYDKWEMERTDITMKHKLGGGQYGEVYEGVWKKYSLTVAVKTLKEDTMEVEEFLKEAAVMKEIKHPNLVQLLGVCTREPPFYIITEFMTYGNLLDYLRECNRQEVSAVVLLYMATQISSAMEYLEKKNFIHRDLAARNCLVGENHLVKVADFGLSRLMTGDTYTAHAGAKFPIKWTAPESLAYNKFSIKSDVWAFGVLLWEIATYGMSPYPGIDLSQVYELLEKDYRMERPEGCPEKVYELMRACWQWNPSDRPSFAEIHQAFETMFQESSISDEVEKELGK

Compound: Cc1ccc(NC(=O)c2ccc(CN3CCN(C)CC3)cc2)cc1Nc1nccc(-c2cccnc2)n1 [imatinib, imatinib mesylate]
- colony-forming ability (H1299 cells; 1-10 uM, dose-dependent, number and size of colonies): strongly inhibited
- size of colonies (H1299 cells; 10:M, compared to untreated cells): reduced in size
- number of colonies (H1299 cells; 10:M, compared to untreated control): almost complete reduction in the number of colonies

Compound: Non-stearate FUS1 peptide: Fus1 peptide sequence without the stearic acid moiety (KLRRVHKNLIPQGIVKLDHR)
- inhibition of Abl tyrosine kinase activity (c-Abl tyrosine kinase; 0-60 uM, 45 kD Abl tyrosine kinase, GST-Crk phosphorylation): did not inhibit
- inhibition of Abl tyrosine kinase (c-Abl tyrosine kinase): did not inhibit
- inhibition of Abl tyrosine kinase (c-Abl tyrosine kinase; listed as Fus1 peptide lacking the stearate N-terminal moiety): inactive

Compound: CCCCCCCCCCCCCCCCCC(=O)N[C@@H](CCCCN)C(=O)N[C@@H](CC(C)C)C(=O)N[C@@H](CCCNC(=N)N)C(=O)N[C@@H](CCCNC(=N)N)C(=O)N[C@H](C(=O)N[C@@H](Cc1c[nH]cn1)C(=O)N[C@@H](CCCCN)C(=O)N[C@@H](CC(N)=O)C(=O)N[C@@H](CC(C)C)C(=O)N[C@H](C(=O)N1CCC[C@H]1C(=O)N[C@@H](CCC(N)=O)C(=O)NCC(=O)N[C@H](C(=O)N[C@H](C(=O)N[C@@H](CCCCN)C(=O)N[C@@H](CC(C)C)C(=O)N[C@@H](CC(=O)O)C(=O)N[C@@H](Cc1c[nH]cn1)C(=O)N1CCC[C@H]1C(=O)N[C@@H](CCCNC(=N)N)C(=O)O)C(C)C)[C@@H](C)CC)[C@@H](C)CC)C(C)C [st-wt-FP] (Stearoyl-KLRRVHKNLIPQGIVKLDHPR-OH)
- cytotoxicity in normal cells [1]: No significant cytotoxicity

Compound: CCCCCCCCCCCCCCCCCC(=O)N[C@@H](CC(=O)O)C(=O)N[C@@H](CC(C)C)C(=O)N[C@H](C(=O)N[C@@H](CCC(=O)O)C(=O)N[C@@H](CCC(=O)O)C(=O)N[C@@H](C)C(=O)N[C@@H](C)C(=O)N[C@@H](CO)C(=O)N[C@@H](CCCNC(=N)N)C(=O)N1CCC[C@H]1C(=O)N[C@H](C(=O)N[C@@H](CC(=O)O)C(=O)N[C@@H](C)C(=O)N[C@H](C(=O)N1CCC[C@H]1C(=O)N[C@@H](CCC(=O)O)C(=O)N[C@@H](CCC(N)=O)C(=O)N[C@H](C(=O)N[C@@H](CCCCN)C(=O)N[C@@H](C)C(=O)N[C@@H](C)C(=O)NCC(=O)N[C@@H](C)C(=O)N[C@@H](Cc1ccc(O)cc1)C(=O)O)C(C)C)C(C)C)C(C)C)[C@@H](C)CC [NSP] (Stearoyl-DLIEEAASRPVDAVPEQVKAAGAY-OH)
- ALT [2, 4]: 76 ± 7.87 U/L
- AST [2, 4]: 183 ± 6 U/L
- Creatinine [2, 4]: 0.6 ± 0 mg/dL
- Total Bilirubin [2, 4]: 2.7 ± 0 mg/dL
- ALT [2, 5]: 61.67 ± 5.44 U/L
- AST [2, 5]: 146 ± 45.31 U/L
- Creatinine [2, 5]: 0.5 ± 0.10 mg/dL
- RBC [2, 5]: 6.23 ± 0.33 ×10^9
- Total Bilirubin [2, 5]: 1.13 ± 1.09 mg/dL
- WBC [2, 5]: 1.93 ± 0.58 ×10^9
- ALT [2, 6]: 58.67 ± 12.55 U/L
- AST [2, 6]: 94.67 ± 28.59 U/L
- Creatinine [2, 6]: 0.38 ± 0.09 mg/dL
- RBC [2, 6]: 5.7 ± 1.14 ×10^9
- Total Bilirubin [2, 6]: 0.6 ± 0.42 mg/dL
- WBC [2, 6]: 1.93 ± 0.45 ×10^9
- ALT [2, 7]: 91.5 ± 7.5 U/L
- AST [2, 7]: 148.5 ± 13.5 U/L
- Creatinine [2, 7]: 0.317 ± 0.02 mg/dL
- Total Bilirubin [2, 7]: 1.8 ± 1.2 mg/dL
- ALT [2, 8]: 54 ± 9.93 U/L
- AST [2, 8]: 96.33 ± 20.24 U/L
- Creatinine [2, 8]: 0.35 ± 0.02 mg/dL
- RBC [2, 8]: 7.47 ± 2.28 ×10^9
- Total Bilirubin [2, 8]: 0.7 ± 0.28 mg/dL
- WBC [2, 8]: 1.6 ± 0.24 ×10^9
- ALT [2, 9]: 50 ± 6.16 U/L
- AST [2, 9]: 83.67 ± 23.63 U/L
- Creatinine [2, 9]: 0.32 ± 0.04 mg/dL
- RBC [2, 9]: 6.67 ± 0.69 ×10^9
- Total Bilirubin [2, 9]: 0.43 ± 0.12 mg/dL
- WBC [2, 9]: 1.6 ± 0.14 ×10^9

Compound: CCCCCCCCCCCCCCCCCC(=O)O [stearic acid]
- foci formation ([3]; 30:M, Rat-1 SH2 cells): no effect
- foci formation [3, 10]: no effects
- inhibition of Abl tyrosine kinase (c-Abl tyrosine kinase): no inhibitory effects; also recorded: not inhibitory
- inhibition of Abl tyrosine kinase (c-Abl tyrosine kinase; listed as Stearate): not inhibitory

Compound: Stearic acid-KLRRVHKNLIPQGIVKLDHR (Stearoyl-KLRRVHKNLIPQGIVKLDHR) [stearate-Fus1 peptide]
- foci formation ([3]; 40 μM): blocked foci formation
- foci formation [3, 10]: blocked foci formation
- inhibition of Abl tyrosine kinase (c-Abl tyrosine kinase): strongly inhibitory
